Results: the supplement of paper PMC11061612

Legend:
Experiment in all cases: combination Emax (second highest fraction inhibited in the dose matrix, 72 h); higher = more inhibition; extreme values may be limits of the assay
SJSA-1 (Osteosarcoma) = tested on: SJSA-1 (Osteosarcoma)
Method in brief: (§1)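 After 24 hours at 37°C and 5% CO2 in 1536-well plates, cells in DMEM/F12 or RPMI plus 10% FBS received two-drug dose matrices for 72 hours. Viability came from CellTiter-Glo 2.0 luminescence and was scaled as inhibition, anchored at 0 by vehicle wells and at 1 by blank wells. Combination Emax is taken as the second-highest inhibition in the matrix, and Bliss excess as the observed combination effect less EA + EB − EA·EB, with EA and EB the single-agent effects.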

[1] = tested on: DAN-G (Pancreatic Carcinoma)
Method in brief: as §1

[2] = tested on: JHH-4 (Hepatocellular Carcinoma)
Method in brief: as §1

RD (Rhabdomyosarcoma) = tested on: RD (Rhabdomyosarcoma)
Method in brief: as §1

[3] = tested on: NCCIT (Other Solid Carcinomas)
Method in brief: as §1

[4] = tested on: NCI-H3122 (Lung Adenocarcinoma)
Method in brief: as §1

[5] = tested on: KMS-12-BM (Plasma Cell Myeloma)
Method in brief: as §1

[6] = tested on: NCI-H526 (Small Cell Lung Carcinoma)
Method in brief: as §1

M059J (Glioblastoma) = tested on: M059J (Glioblastoma)
Method in brief: as §1

[7] = tested on: MOLM-13 (Acute Myeloid Leukemia)
Method in brief: as §1

[8] = tested on: KU812 (Chronic Myelogenous Leukemia)
Method in brief: as §1

[9] = tested on: CW-2 (Colorectal Carcinoma)
Method in brief: as §1

[10] = tested on: MOG-G-CCM (Low Grade Glioma)
Method in brief: as §1

G-361 (Melanoma) = tested on: G-361 (Melanoma)
Method in brief: as §1

[11] = tested on: NCI-H929 (Plasma Cell Myeloma)
Method in brief: as §1

NCI-H2731 (Mesothelioma) = tested on: NCI-H2731 (Mesothelioma)
Method in brief: as §1

[12] = tested on: SK-GT-2 (Gastric Carcinoma)
Method in brief: as §1

[13] = tested on: HCC1419 (Breast Carcinoma)
Method in brief: as §1

[14] = tested on: VMRC-RCZ (Kidney Carcinoma)
Method in brief: as §1

[15] = tested on: RPMI-8226 (Plasma Cell Myeloma)
Method in brief: as §1

CN(CCO)CC[C@H](CSc1ccccc1)Nc1ccc(S(=O)(=O)NC(=O)c2ccc(N3CCC([C@@H](O)c4ccccc4-c4ccc(Cl)cc4)CC3)cc2)cc1S(=O)(=O)C(F)(F)F [AZD4320] + C[C@@H]1COCCN1C2=NC(=NC(=C2)C3(CC3)[S@](=N)(=O)C)C4=C5C=CNC5=NC=C4 [AZD6738] (first compound max 1 µM, 7x7, partner max 10 µM)
combination Emax (SJSA-1 (Osteosarcoma)): 0.557 | combination Emax [1]: 0.765 | combination Emax [2]: 0.385 | combination Emax (RD (Rhabdomyosarcoma)): 0.781 | combination Emax [3]: 0.727 | combination Emax [4]: 0.675 | combination Emax [5]: 1 | combination Emax [6]: 0.977 | combination Emax (M059J (Glioblastoma)): 0.774 | combination Emax [7]: 1 | combination Emax [8]: 0.942 | combination Emax [9]: 0.49 | combination Emax [10]: 0.783 | combination Emax (G-361 (Melanoma)): 0.629 | combination Emax [11]: 0.739 | combination Emax (NCI-H2731 (Mesothelioma)): 0.328 | combination Emax [12]: 0.633 | combination Emax [13]: 0.367 | combination Emax [14]: 0.566 | combination Emax [15]: 1

CC1(C)CCC(CN2CCN(c3ccc(C(=O)NS(=O)(=O)c4ccc(NCC5CCOCC5)c([N+](=O)[O-])c4)c(Oc4cnc5[nH]ccc5c4)c3)CC2)=C(c2ccc(Cl)cc2)C1 [Venetoclax] + Cn1cnc2c(F)c(Nc3ccc(Br)cc3Cl)c(C(=O)NOCCO)cc21 [Selumetinib] (first compound max 1 µM, 7x7, partner max 3 µM)
combination Emax (SJSA-1 (Osteosarcoma)): 0.325 | combination Emax [1]: 0.233 | combination Emax [2]: 0.188 | combination Emax (RD (Rhabdomyosarcoma)): 0.217 | combination Emax [3]: 0.112 | combination Emax [4]: 0.387 | combination Emax [5]: 1 | combination Emax [6]: 0.625 | combination Emax (M059J (Glioblastoma)): 0.203 | combination Emax [7]: 1 | combination Emax [8]: 0.783 | combination Emax [9]: 0.191 | combination Emax [10]: 0.0923 | combination Emax (G-361 (Melanoma)): 0.702 | combination Emax [11]: 0.386 | combination Emax (NCI-H2731 (Mesothelioma)): 0.0907 | combination Emax [12]: 0.0541 | combination Emax [13]: 0.201 | combination Emax [14]: 0.122 | combination Emax [15]: 0.325

Cn1cnc2c(F)c(Nc3ccc(Br)cc3Cl)c(C(=O)NOCCO)cc21 [Selumetinib] + CCN(CCO)CCCOc1ccc2c(Nc3cc(CC(=O)Nc4cccc(F)c4)[nH]n3)ncnc2c1 [AZD2811] (first compound max 10 µM, 7x7, partner max 1 µM)
combination Emax (SJSA-1 (Osteosarcoma)): 0.384 | combination Emax [1]: 0.519 | combination Emax [2]: 0.63 | combination Emax (RD (Rhabdomyosarcoma)): 0.297 | combination Emax [3]: 0.109 | combination Emax [4]: 0.653 | combination Emax [5]: 0.397 | combination Emax [6]: 0.32 | combination Emax (M059J (Glioblastoma)): 0.237 | combination Emax [7]: 0.999 | combination Emax [8]: 0.951 | combination Emax [9]: 0.349 | combination Emax [10]: 0.457 | combination Emax (G-361 (Melanoma)): 0.798 | combination Emax [11]: 0.698 | combination Emax (NCI-H2731 (Mesothelioma)): 0.201 | combination Emax [12]: 0.173 | combination Emax [13]: 0.113 | combination Emax [14]: 0.152 | combination Emax [15]: 0.446

CCN(CCO)CCCOc1ccc2c(Nc3cc(CC(=O)Nc4cccc(F)c4)[nH]n3)ncnc2c1 [AZD2811] + C=CCn1c(=O)c2cnc(Nc3ccc(N4CCN(C)CC4)cc3)nc2n1-c1cccc(C(C)(C)O)n1 [AZD1775] (first compound max 1 µM, partner max 1 µM)
combination Emax (SJSA-1 (Osteosarcoma)): 0.289 | combination Emax [1]: 0.623 | combination Emax [2]: 0.355 | combination Emax (RD (Rhabdomyosarcoma)): 0.347 | combination Emax [3]: 0.781 | combination Emax [4]: 0.627 | combination Emax [5]: 0.944 | combination Emax [6]: 0.566 | combination Emax (M059J (Glioblastoma)): 0.553 | combination Emax [7]: 1 | combination Emax [8]: 0.725 | combination Emax [9]: 0.274 | combination Emax [10]: 0.377 | combination Emax (G-361 (Melanoma)): 0.477 | combination Emax [11]: 0.323 | combination Emax (NCI-H2731 (Mesothelioma)): 0.382 | combination Emax [12]: 0.769 | combination Emax [13]: 0.0861 | combination Emax [14]: 0.217 | combination Emax [15]: 0.562

CN(CCO)CC[C@H](CSc1ccccc1)Nc1ccc(S(=O)(=O)NC(=O)c2ccc(N3CCC([C@@H](O)c4ccccc4-c4ccc(Cl)cc4)CC3)cc2)cc1S(=O)(=O)C(F)(F)F [AZD4320] + C[C@@H](Nc1cc(F)cc(F)c1)c1cc(C(=O)N(C)C)cc2c(=O)cc(N3CCOCC3)oc12 [AZD8186] (first compound max 1 µM, 7x7, partner max 3 µM)
combination Emax (SJSA-1 (Osteosarcoma)): 0.315 | combination Emax [1]: 0.344 | combination Emax [2]: 0.34 | combination Emax (RD (Rhabdomyosarcoma)): 0.887 | combination Emax [3]: 0.329 | combination Emax [4]: 0.365 | combination Emax [5]: 1 | combination Emax [6]: 0.973 | combination Emax (M059J (Glioblastoma)): 0.306 | combination Emax [7]: 1 | combination Emax [8]: 0.705 | combination Emax [9]: 0.149 | combination Emax [10]: 0.728 | combination Emax (G-361 (Melanoma)): 0.332 | combination Emax [11]: 0.792 | combination Emax (NCI-H2731 (Mesothelioma)): 0.552 | combination Emax [12]: 0.237 | combination Emax [13]: 0.342 | combination Emax [14]: 0.397 | combination Emax [15]: 0.968

Cc1cc2ncnn2cc1Nc1ncc2c(n1)n(C1CCOCC1)c(=O)n2C [AZD7648] + O=C(c1cc(Cc2n[nH]c(=O)c3ccccc23)ccc1F)N1CCN(C(=O)C2CC2)CC1 [Olaparib] (first compound max 10 µM, 7x7, partner max 10 µM)
combination Emax (SJSA-1 (Osteosarcoma)): 0.18 | combination Emax [1]: 0.531 | combination Emax [2]: 0.112 | combination Emax (RD (Rhabdomyosarcoma)): 0.161 | combination Emax [3]: 0.192 | combination Emax [4]: 0.281 | combination Emax [5]: 0.429 | combination Emax [6]: 0.473 | combination Emax (M059J (Glioblastoma)): 0.431 | combination Emax [7]: 0.43 | combination Emax [8]: 0.393 | combination Emax [9]: 0.0683 | combination Emax [10]: 0.236 | combination Emax (G-361 (Melanoma)): 0.117 | combination Emax [11]: 0.761 | combination Emax (NCI-H2731 (Mesothelioma)): 0.14 | combination Emax [12]: 0.0892 | combination Emax [13]: 0.174 | combination Emax [14]: 0.129 | combination Emax [15]: 0.464
